A word on the IC50: it is the concentration that inhibits the measured activity by half.

Format in all cases: binding
Experiment [1] deals with T1, recombinant N-terminal PMS2 (residues 1-365) (Homo sapiens, UniProt P54278).
T1 construct: recombinant N-terminal PMS2 (residues 1-365)
T1 sequence (P54278 1-365): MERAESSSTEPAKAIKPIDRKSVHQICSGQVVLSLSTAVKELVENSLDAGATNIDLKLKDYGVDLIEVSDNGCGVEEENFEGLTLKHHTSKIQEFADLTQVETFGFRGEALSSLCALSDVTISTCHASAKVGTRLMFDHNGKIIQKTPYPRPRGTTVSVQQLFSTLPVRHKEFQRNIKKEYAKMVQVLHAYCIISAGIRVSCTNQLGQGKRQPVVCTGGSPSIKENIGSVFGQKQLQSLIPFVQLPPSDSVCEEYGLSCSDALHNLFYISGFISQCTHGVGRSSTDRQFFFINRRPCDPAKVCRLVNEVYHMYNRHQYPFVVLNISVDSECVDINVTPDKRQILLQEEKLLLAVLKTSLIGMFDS
The experiment in a line: Fluorescence Polarisation Assay for PMS2. Conditions: 10 nM N-terminal PMS2, 5 nM probe compound. On the procedure: Fluorescence Polarisation Assay for PMS2
Test compounds, as 10 mM DMSO stocks, were dispensed into a Black Fluotrac 200 384 well medium binding plate (Greiner Bio-One, item number 781076) using a Labcyte Echo acoustic liquid handler. For single point screening, test compounds were added to wells in columns 1-22 whilst DMSO was added to wells in columns 23 and 24 to normalise the plate. For potency determination, serial dilutions of test compounds were added to wells in columns 3-22 and DMSO volume was normalised across the plate. […] 20 μL assay buffer was added to all wells in columns 1 and 24 (column 24 only for single point screening) using a MultiDrop Combi (ThermoFisher). Plates were centrifuged for 1 minute at 250 xg and were incubated at room temperature for 30 minutes prior to the addition of 20 μL of 2×(20 nM) of 5-((5-(4-((2-(2,4-dihydroxy-5-isopropylbenzoyl) isoindolin-5-yl) methyl)piperazin-1-yl) pentyl)carbamoyl)-2-(6-(dimethylamino)-3-(dimethyliminio)-3H-xanthen-9-yl)benzoate (referred to hereinafter as “probe compound”) in assay buffer (prepared from a 100 μM DMSO stock) with a MultiDrop Combi (ThermoFisher). The final concentration of N-terminal PMS2 was 10 nM and the final concentration of probe compound was 5 nM. Compound plates were centrifuged for 1 minute at 250 xg for 1 minute and were incubated at room temperature for 1 hour before being read on a PheraStar FSX (fitted with 384-well aperture spoon and 540 590 590 FP optic module). The gain and focus were adjusted before each plate was read so that the polarisation of a no enzyme control (column 24) was equal to 35 mP. Data were normalised against the no inhibitor controls (column 23) and no enzyme controls (column 24).

Experiment [2] has as its target T2, recombinant HSP90α (full length with an N-terminal His6-tag) (Homo sapiens, UniProt P07900).
T2 construct: recombinant HSP90α (full length with an N-terminal His6-tag, BPS Bioscience); His6 (N); purchased BPS Bioscience
The experiment in a line: Fluorescence Polarisation Assay for HSP90. Particulars: 30 nM HSP90α, 5 nM FITC-Geldanymycin. As to the method:
Fluorescence Polarisation Assay for HSP90
Test compounds, solubilised to a concentration of 10 mM in DMSO, were dispensed into a Black Fluotrac 200 384 well medium binding plates (Greiner Bio-One, item number 781076) using a Labcyte Echo acoustic liquid handler. For single point screening, test compounds were added to wells in columns 1-22 whilst for potency determination, serial dilutions of test compounds were added to wells in columns 3-22; in all cases, DMSO volume was normalised across the entire plate. All subsequent liquid handling steps were conducted using a Multidrop Combi (Thermo Scientific) or Matrix electronic pipettors (Thermo Scientific).
20 μL assay buffer was added to all wells in columns 1 and 24 (column 24 only for single point screening). Plates were centrifuged for 1 minute at 250 xg and were incubated at room temperature for 30 minutes prior to the addition of 20 μL of 2×(10 nM) of FITC-Geldanymycin in assay buffer (Abcam ab141589, prepared from a 100 μM DMSO stock). […]
Compound plates were centrifuged for 1 minute at 250 xg and were incubated at room temperature for 3 hours before being read on a PheraStar FSX (fitted with 384-well aperture spoon and 485 520 520 FP optic module). The gain and focus were adjusted before each plate was read so that the polarisation of a no enzyme control (column 24) was equal to 35 mP. […]
In general terms: Fluorescence polarisation rises when a labelled molecule tumbles more slowly, as on binding a larger partner.

Experiment [3] deals with T3, recombinant N-terminal MLH1 (residues 15-340) (Homo sapiens, UniProt P40692).
T3 construct: recombinant N-terminal MLH1 (residues 15-340)
T3 sequence (P40692 15-340): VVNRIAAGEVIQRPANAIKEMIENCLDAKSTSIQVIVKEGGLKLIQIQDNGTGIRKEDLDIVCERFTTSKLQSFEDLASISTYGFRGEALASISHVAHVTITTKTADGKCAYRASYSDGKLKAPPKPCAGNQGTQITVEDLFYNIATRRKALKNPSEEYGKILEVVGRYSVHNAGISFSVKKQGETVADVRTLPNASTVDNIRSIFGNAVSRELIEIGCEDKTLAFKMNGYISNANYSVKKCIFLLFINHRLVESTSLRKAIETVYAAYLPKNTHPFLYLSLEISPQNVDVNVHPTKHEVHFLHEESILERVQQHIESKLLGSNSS
The experiment in a line: Fluorescence Polarisation Assay for MLH1. Particulars: 100 nM N-terminal MLH1, 5 nM probe compound. A digest of the protocol:
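Fluorescence polarisation displacement: 100 nM MLH1 (15-340) preincubated 30 min at room temperature with compound, then 5 nM rhodamine-labelled probe added and read immediately. Buffer 25 mM HEPES pH 7.5, 250 mM NaCl, 10 mM MgCl2, 0.01% Triton X-100, 5 mM DTT; normalised to no-inhibitor and no-enzyme controls.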

As to `CN1CCC(Oc2ccc3c(c2)CN(C(=O)c2c(O)cc(C(F)F)cc2OCc2ccccc2)C3)CC1` [Example 4.32, (2-(Benzyloxy)-4-(difluoromethyl)-6-hydroxyphenyl)(5-((1-methylpiperidin-4-yl)oxy)isoindolin-2-yl)methanone], the IC50 in experiment [1] was 1000 to 10000 nM; in experiment [2], 1000 to 10000 nM; in experiment [3] it was below 100 nM. For the compound `CN(C)CCOc1ccc2c(c1)CCN(C(=O)c1c(O)cc(C(F)F)cc1OCc1ccccc1)C2` [Example 4.41, (2-(Benzyloxy)-4-s(difluoromethyl)-6-hydroxyphenyl)(6-(2-(dimethylamino)ethoxy)-3,4-dihydroisoquinolin-2(1H)-yl)methanone], the half-maximal inhibitory concentration (IC50) in experiment [1] and in experiment [3] was 100 to 1000 nM throughout. For `CN1CC[C@H](Oc2ccc3c(c2)CN(C(=O)c2c(O)cc(C(F)F)cc2OCc2ccccc2)C3)C1` [Example 4.56, (S)-(2-(Benzyloxy)-4-(difluoromethyl)-6-hydroxyphenyl)(5-((1-methylpyrrolidin-3-yl)oxy)isoindolin-2-yl)methanone], the 50% inhibitory concentration (IC50) was 1000 to 10000 nM in experiment [1] and below 100 nM in experiment [3]. Turning to `CN1CCC(Oc2ccc3c(c2)CN(C(=O)c2c(O)cc(C(F)F)cc2OCC2CC2)C3)CC1` [Example 4.59, (2-(Cyclopropylmethoxy)-4-(difluoromethyl)-6-hydroxyphenyl)(5-((1-methylpiperidin-4-yl)oxy)isoindolin-2-yl)methanone], the IC50 in experiment [2] was 1000 to 10000 nM; in experiment [3] it was 100 to 1000 nM. As for `CN1CCC(Oc2ccc3c(c2)CN(C(=O)c2c(O)cc(F)cc2OCc2ccccc2)C3)CC1` [Example 10.25, (2-(Benzyloxy)-4-fluoro-6-hydroxyphenyl) (5-((1-methylpiperidin-4-yl)oxy)isoindolin-2-yl) methadone], the IC50 fell in the range of 1000 to 10000 nM in experiment [1] and 100 to 1000 nM in experiment [3]. In the case of `O=C(c1c(O)cc(C(F)F)cc1OCc1ccccc1)N1Cc2ccc(OC3CCNCC3)cc2C1` [Example 26, (2-(Benzyloxy)-4-(difluoromethyl)-6-hydroxyphenyl)(5-(piperidin-4-yloxy)isoindolin-2-yl)methanone], the IC50 is 1000 to 10000 nM in experiment [1] and below 100 nM in experiment [3]. Take `O=C(c1c(O)cc(C(F)F)cc1OCc1ccccc1)N1CCCc2cc(NC3CCOC3)ccc21` (stereo not shown) [Example 27.19, (2-(Benzyloxy)-4-(difluoromethyl)-6-hydroxyphenyl)(6-((tetrahydrofuran-3-yl)amino)-3,4-dihydroquinolin-1(2H)-yl)methanone]: the IC50 in experiment [3] was 1000 to 10000 nM.

As to `O=C(c1c(O)cc(C(F)F)cc1OCc1ccccc1)N1CCc2ncnc(NC3CCOC3)c2C1` (stereo not shown) [Example 27.20, (2-(Benzyloxy)-4-(difluoromethyl)-6-hydroxyphenyl)(4-((tetrahydrofuran-3-yl)amino)-7,8-dihydropyrido[4,3-d]pyrimidin-6(5H)-yl)methanone], the half-maximal inhibitory concentration (IC50) in experiment [3] lay within 100 to 1000 nM. With `O=C(c1c(O)cc(C(F)F)cc1OCc1ccccc1)N1CCc2cnccc21` [Example 27.21, (2-(Benzyloxy)-4-(difluoromethyl)-6-hydroxyphenyl)(2,3-dihydro-1H-pyrrolo[3,2-c]pyridin-1-yl)methanone], the IC50 in experiment [3] is 1000 to 10000 nM. For the compound `O=C(c1c(O)cc(C(F)F)cc1OCc1ccccc1)N1CCc2ncccc21` [Example 27.22, (2-(Benzyloxy)-4-(difluoromethyl)-6-hydroxyphenyl)(2,3-dihydro-1H-pyrrolo[3,2-b]pyridin-1-yl)methanone], in experiment [3], the IC50 lay in the range of 1000 to 10000 nM.

For the compound `O=C(c1c(O)cc(C(F)F)cc1OCc1ccccc1)N1CCc2ccncc21` [Example 27.23, (2-(Benzyloxy)-4-(difluoromethyl)-6-hydroxyphenyl)(2,3-dihydro-1H-pyrrolo[2,3-c]pyridin-1-yl)methanone], in experiment [3], the IC50 is 1000 to 10000 nM.

Turning to `O=C(c1c(O)cc(C(F)F)cc1OCc1ccccc1)N1CCc2c(NC3CCOC3)cccc21` (stereo not shown) [Example 27.24, (2-(Benzyloxy)-4-(difluoromethyl)-6-hydroxyphenyl)(4-((tetrahydrofuran-3-yl)amino)indolin-1-yl)methanone], the 50% inhibitory concentration (IC50) in experiment [3] is 1000 to 10000 nM.

Consider `Cn1ncc2ccc(COc3cc(C(F)F)cc(O)c3C(=O)N3CCc4cccc(N[C@H]5CCOC5)c4C3)cc21` [Example 28, (S)-(4-(Difluoromethyl)-2-hydroxy-6-((1-methyl-1H-indazol-6-yl)methoxy)phenyl)(8-((tetrahydrofuran-3-yl)amino)-3,4-dihydroisoquinolin-2(1H)-yl)methanone], for which the IC50 in experiment [3] is below 100 nM.

In the case of `O=C(c1c(O)cc(C(F)F)cc1OCC12CC(CO1)C2)N1CCc2cccc(N[C@H]3CCOC3)c2C1` [Example 28.1, (S)-(2-((2-Oxabicyclo[2.1.1]hexan-1-yl)methoxy)-4-(difluoromethyl)-6-hydroxyphenyl)(8-((tetrahydrofuran-3-yl)amino)-3,4-dihydroisoquinolin-2(1H)-yl)methanone], the IC50 in experiment [3] fell in the range of 1000 to 10000 nM.

On to `O=C(c1c(O)cc(C(F)F)cc1OCc1ccc2cnccc2c1)N1CCc2cccc(N[C@H]3CCOC3)c2C1` [Example 28.2, (S)-(4-(Difluoromethyl)-2-hydroxy-6-(isoquinolin-6-ylmethoxy)phenyl)(8-((tetrahydrofuran-3-yl)amino)-3,4-dihydroisoquinolin-2(1H)-yl)methanone], for which the half-inhibitory concentration (IC50) in experiment [3] is below 100 nM. Regarding `O=C(c1c(O)cc(C(F)F)cc1OCc1ccc2ccncc2c1)N1CCc2cccc(N[C@H]3CCOC3)c2C1` [Example 28.3, (S)-(4-(Difluoromethyl)-2-hydroxy-6-(isoquinolin-7-ylmethoxy)phenyl)(8-((tetrahydrofuran-3-yl)amino)-3,4-dihydroisoquinolin-2(1H)-yl)methanone], the half-inhibitory concentration (IC50) in experiment [3] was 100 to 1000 nM. Regarding `O=C(c1c(O)cc(C(F)F)cc1OCc1nc2ccccc2[nH]1)N1CCc2cccc(N[C@H]3CCOC3)c2C1` [Example 28.4, (S)-(2-((1H-Benzo[d]imidazol-2-yl)methoxy)-4-(difluoromethyl)-6-hydroxyphenyl)(8-((tetrahydrofuran-3-yl)amino)-3,4-dihydroisoquinolin-2(1H)-yl)methanone], the IC50 in experiment [3] lay in the range of 1000 to 10000 nM. Take `CC(=O)N1CCC(Oc2ccc3c(c2)CN(C(=O)c2c(O)cc(C(F)F)cc2OCc2ccccc2)C3)CC1` [Example 29, 1-(4-((2-(2-(Benzyloxy)-4-(difluoromethyl)-6-hydroxybenzoyl)isoindolin-5-yl)oxy)piperidin-1-yl) ethan-1-one]: the IC50 in experiment [3] was below 100 nM.

The values are drawn from US20260217687A1 (NeoPhore Limited, priority 2023, published 2026).
